In general, MIC refers to the least concentration at which growth counts as inhibited.

In brackets after ≈: the same amount, converted by molar mass.

One assay deals with E. coli. The experiment in a line: MIC by broth microdilution (CLSI), E. coli. The class given is cell-based. To be noted: broth microdilution, cation adjusted Mueller-Hinton Broth, 35° C., 18-24 h; for MIC: Escherichia coli, read-out: E. coli MIC. As to the method: (§1) Minimal inhibitory concentrations (MIC) were determined by the broth microdilution method in accordance with the Clinical and Laboratory Standards Institute (CLSI) guidelines. In brief, organism suspensions were adjusted to a 0.5 McFarland standard to yield a final inoculum between 3×10^5 and 7×10^5 colony-forming units (CFU)/mL. Drug dilutions and inocula were made in sterile, cation adjusted Mueller-Hinton Broth (Beckton Dickinson). An inoculum volume of 100 μL was added to wells containing 100 μL of broth with 2-fold serial dilutions of drug. All inoculated microdilution trays were incubated in ambient air at 35° C. for 18-24 h. Following incubation, the lowest concentration of the drug that prevented visible growth (OD600 nm<0.05) was recorded as the MIC. Performance of the assay was monitored by the use of laboratory quality-control strains and levofloxacin, a compound with a defined MIC spectrum, in accordance with CLSI guidelines.
In general terms: Dilution methods test growth across graded concentrations, often in twofold steps.

The subject of a further assay is K. pneumoniae. The experiment in a line: MIC by broth microdilution (CLSI), K. pneumoniae. It counts as cell-based. The settings on record: broth microdilution, cation adjusted Mueller-Hinton Broth, 35° C., 18-24 h; for MIC: Klebsiella pneumoniae, read-out: K. pneumoniae MIC. The procedure:
as §1

For the compound `O=c1[nH]cnc(CCc2ccc(C#Cc3ccc(CNC4CC(O)C4)cc3)cn2)c1O` (stereo not drawn) [Compound 15, 5-hydroxy-6-(2-(5-((4-(((3-hydroxycyclobutyl)amino)methyl)phenyl)ethynyl)pyridin-2-yl)ethyl)pyrimidin-4(3H)-one], the minimum inhibitory concentration (MIC) in the assay with E. coli is 8 to 32 µg/mL (≈ 19.2 to 76.8 µM); in the assay on K. pneumoniae it was > 32 µg/mL.
Regarding `O=c1[nH]cnc(C2CC2c2ccc(C#Cc3ccc(CN[C@@H]4CCNC4)cc3)cc2)c1O` (stereo partly drawn) [Compound 103, 5-hydroxy-6-(2-(4-((4-((((R)-pyrrolidin-3-yl)amino)methyl)phenyl)ethynyl)phenyl)cyclopropyl) pyrimidin-4(3H)-one], the MIC in the assay with E. coli is 1 to 8 µg/mL (≈ 2.34 to 18.8 µM); in the assay with K. pneumoniae, > 32 µg/mL.
Consider `O=c1[nH]cnc(Cn2ccc3cc(C#Cc4ccc(CN5CCOCC5)cc4)cnc32)c1O` [Compound 80, 5-hydroxy-6-((5-((4-(morpholinomethyl)phenyl)ethynyl)-1H-pyrrolo[2,3-b]pyridin-1-yl)methyl)pyrimidin-4(3H)-one], for which the MIC in the assay with E. coli is 8 to 32 µg/mL (≈ 18.1 to 72.5 µM); with K. pneumoniae, > 32 µg/mL.
Regarding `CC(=O)NCC(Cc1ccc(C#CC#CC2CC2)c(F)c1)c1nc[nH]c(=O)c1O` (stereo not drawn) [Compound 64, N-(3-(4-(cyclopropylbuta-1,3-diyn-1-yl)-3-fluorophenyl)-2-(5-hydroxy-6-oxo-1,6-dihydropyrimidin-4-yl)propyl)acetamide], the minimum inhibitory concentration (MIC) in the assay with E. coli and with K. pneumoniae was 1 to 8 µg/mL (≈ 2.54 to 20.3 µM) throughout.
On to `CC(C)C#CC#Cc1ccc(CC(CNCCF)c2nc[nH]c(=O)c2O)cc1` (stereo not drawn) [Compound 66, 6-(1-((2-fluoroethyl)amino)-3-(4-(5-methylhexa-1,3-diyn-1-yl)phenyl)propan-2-yl)-5-hydroxypyrimidin-4(3H)-one], for which the MIC in the assay on E. coli and in the assay on K. pneumoniae was 8 to 32 µg/mL (≈ 21 to 83.9 µM) throughout.
Regarding `O=c1[nH]cnc(C2(Cc3ccc(C#Cc4ccc(CNC5CCOC5)cc4)cc3)CC2)c1O` (stereo not drawn) [Compound 136, 5-hydroxy-6-(1-(4-((4-(((tetrahydrofuran-3-yl)amino)methyl)phenyl)ethynyl)benzyl)cyclopropyl)pyrimidin-4(3H)-one], the MIC lay within 1 to 8 µg/mL (≈ 2.26 to 18.1 µM) with E. coli and 8 to 32 µg/mL (≈ 18.1 to 72.5 µM) with K. pneumoniae.
For the compound `C=CCNCC(Cc1ccc(C#CC#Cc2ccc(C(=O)NCCO)cc2)cc1)c1nc[nH]c(=O)c1O` (stereo not drawn) [Compound 34, 4-((4-(3-(allylamino)-2-(5-hydroxy-6-oxo-1,6-dihydropyrimidin-4-yl)propyl)phenyl)buta-1,3-diyn-1-yl)-N-(2-hydroxyethyl)benzamide], the minimum inhibitory concentration (MIC) with E. coli was 1 to 8 µg/mL (≈ 2.01 to 16.1 µM); with K. pneumoniae, 8 to 32 µg/mL (≈ 16.1 to 64.4 µM).
Regarding `N#Cc1ccc(-c2ccc(CC(C(=O)NCC(F)F)c3nc[nH]c(=O)c3O)cc2)cc1` (stereo not drawn) [Compound 39, 3-(4′-cyano-[1,1′-biphenyl]-4-yl)-N-(2,2-difluoroethyl)-2-(5-hydroxy-6-oxo-1,6-dihydropyrimidin-4-yl)propanamide], the MIC with E. coli and with K. pneumoniae was > 32 µg/mL throughout.
Consider `C/C(=N\O)C(Cc1ccc(C#Cc2ccc(CN3CCOCC3)cc2)cc1)c1ncnc(O)c1O` (stereo not drawn) [Compound 111, (E)-3-(5,6-dihydroxypyrimidin-4-yl)-4-(4-((4-(morpholinomethyl)phenyl)ethynyl)phenyl)butan-2-one oxime], for which the MIC in the assay on E. coli was 8 to 32 µg/mL (≈ 16.9 to 67.7 µM); with K. pneumoniae, > 32 µg/mL.
As for `OCC(Cc1nncc(O)c1O)c1ccc(C#Cc2ccc(CN[C@H]3CCOC3)cc2)cc1` (single isomer, unassigned) [Compound 102], the “E. coli MIC” value in the assay with E. coli was “C (C: >8.0 μg/mL to ≤32 μg/mL)”. In addition, the “K. pneumoniae MIC” value with K. pneumoniae is “C (C: >8.0 μg/mL to ≤32 μg/mL)”.
Take `O=c1[nH]cnc(C(CNCCF)Cc2ccc(C#CC#CC3CC3)cc2)c1O` (stereo not drawn) [Compound 68, 6-(1-(4-(cyclopropylbuta-1,3-diyn-1-yl)phenyl)-3-((2-fluoroethyl)amino)propan-2-yl)-5-hydroxypyrimidin-4(3H)-one]: the MIC in the assay with E. coli and in the assay on K. pneumoniae was > 32 µg/mL in each case.
Turning to `O=C(NCC(F)F)C(Cc1ccc(C#CC#CC2CC2)c(F)c1)c1nc[nH]c(=O)c1O` (stereo not drawn) [Compound 61, 3-(4-(cyclopropylbuta-1,3-diyn-1-yl)-3-fluorophenyl)-N-(2,2-difluoroethyl)-2-(5-hydroxy-6-oxo-1,6-dihydropyrimidin-4-yl)propanamide], the minimum inhibitory concentration (MIC) in the assay on E. coli and in the assay with K. pneumoniae was 1 to 8 µg/mL (≈ 2.33 to 18.6 µM) each time.
Regarding `O=c1[nH]cnc(CNc2ccc(C#Cc3ccc(CN4CCOCC4)cc3)cc2)c1O` [Compound 108, 5-hydroxy-6-(((4-((4-(morpholinomethyl)phenyl)ethynyl)phenyl)amino)methyl) pyrimidin-4(3H)-one], the results for the MIC in the assay on E. coli and in the assay with K. pneumoniae were 1 to 8 µg/mL (≈ 2.4 to 19.2 µM) and > 32 µg/mL, respectively.
In the same order, the values of `O=c1[nH]cnc(CCc2ccc(C#Cc3ccc(CN4CCOCC4)cn3)cc2)c1O` [Compound 16, 5-hydroxy-6-(4-((5-(morpholinomethyl)pyridin-2-yl)ethynyl)phenethyl) pyrimidin-4(3H)-one] are < 1 µg/mL and 1 to 8 µg/mL (≈ 2.4 to 19.2 µM).
Consider `C=CCNCC(Cc1ccc(C#CC#Cc2cnc(C)nc2)cc1)c1nc[nH]c(=O)c1O` (stereo not drawn) [Compound 37, 6-(1-(allylamino)-3-(4-((2-methylpyrimidin-5-yl)buta-1,3-diyn-1-yl)phenyl)propan-2-yl)-5-hydroxypyrimidin-4(3H)-one], for which the results for the MIC with E. coli and in the assay on K. pneumoniae were 8 to 32 µg/mL (≈ 18.8 to 75.2 µM) and > 32 µg/mL, respectively.
In the case of `CC(=O)NCC(Cc1ccc(C#Cc2ccc(CN3CCOCC3)cc2)cc1)c1nncc(O)c1O` (stereo not drawn) [Compound 11, N-(2-(4,5-dihydroxypyridazin-3-yl)-3-(4-((4-(morpholinomethyl)phenyl)ethynyl)phenyl)propyl) acetamide], the minimum inhibitory concentration (MIC) with E. coli and with K. pneumoniae was 8 to 32 µg/mL (≈ 16.4 to 65.8 µM) in each case.
As for `O=c1ccoc(CNc2ccc(C#Cc3ccc(CN4CCOCC4)cc3)cc2)c1O` [Compound 109, 3-hydroxy-2-(((4-((4-(morpholinomethyl)phenyl)ethynyl)phenyl)amino)methyl)-4H-pyran-4-one], the minimal inhibitory concentration (MIC) with E. coli lay within 1 to 8 µg/mL (≈ 2.4 to 19.2 µM); with K. pneumoniae, 8 to 32 µg/mL (≈ 19.2 to 76.8 µM).
For `C=CCNCC(Cc1ccc(C#CC#Cc2cnn(C)c2)cc1)c1nc[nH]c(=O)c1O` (stereo not drawn) [Compound 62, 6-(1-(allylamino)-3-(4-((1-methyl-1H-pyrazol-4-yl)buta-1,3-diyn-1-yl)phenyl)propan-2-yl)-5-hydroxypyrimidin-4(3H)-one] the same measures were 1 to 8 µg/mL (≈ 2.42 to 19.3 µM) and 8 to 32 µg/mL (≈ 19.3 to 77.4 µM).
On to `O=c1[nH]cnc(CCc2ccc(C#Cc3ccncc3)cc2)c1O` [Compound 18, 5-hydroxy-6-(4-(pyridin-4-ylethynyl)phenethyl) pyrimidin-4(3H)-one], for which the minimum inhibitory concentration (MIC) in the assay on E. coli was < 1 µg/mL; in the assay with K. pneumoniae, > 32 µg/mL.
Take `Nc1ncc(C#Cc2ccc(CC(C(=O)NCC(F)F)c3nc[nH]c(=O)c3O)cc2)cn1` (stereo not drawn) [Compound 24, 3-(4-((2-aminopyrimidin-5-yl)ethynyl)phenyl)-N-(2,2-difluoroethyl)-2-(5-hydroxy-6-oxo-1,6-dihydropyrimidin-4-yl)propanamide]: the minimal inhibitory concentration (MIC) with E. coli and in the assay on K. pneumoniae was > 32 µg/mL each time.
Regarding `O=C(NCC(F)F)C(Cc1ccc(C#Cc2ccc(C(F)(F)F)nc2)cc1)c1nc[nH]c(=O)c1O` (stereo not drawn) [Compound 26, N-(2,2-difluoroethyl)-2-(5-hydroxy-6-oxo-1,6-dihydropyrimidin-4-yl)-3-(4-((6-(trifluoromethyl)pyridin-3-yl)ethynyl)phenyl) propanamide], the MIC with E. coli and in the assay with K. pneumoniae was > 32 µg/mL in each case.
As for `C=C(Cc1ccc(C#Cc2ccc(CN3CCOCC3)cc2)cc1)c1nc[nH]c(=O)c1O` [Compound 105, 5-hydroxy-6-(3-(4-((4-(morpholinomethyl)phenyl)ethynyl)phenyl)prop-1-en-2-yl)pyrimidin-4(3H)-one], the MIC with E. coli and with K. pneumoniae was 1 to 8 µg/mL (≈ 2.34 to 18.7 µM) throughout.
With `O=c1[nH]cnc(C(CNCCF)Cc2ccc(C#Cc3ccc(CN4CCOCC4)cn3)cc2)c1O` (stereo not drawn) [Compound 30, 6-(1-((2-fluoroethyl)amino)-3-(4-((5-(morpholinomethyl)pyridin-2-yl)ethynyl)phenyl)propan-2-yl)-5-hydroxypyrimidin-4(3H)-one], the MIC with E. coli and in the assay with K. pneumoniae was > 32 µg/mL in each case.
Regarding `O=C(NCC(F)F)C(Cc1ccc(C#Cc2cnc(C(F)(F)F)nc2)cc1)c1nc[nH]c(=O)c1O` (stereo not drawn) [Compound 27, N-(2,2-difluoroethyl)-2-(5-hydroxy-6-oxo-1,6-dihydropyrimidin-4-yl)-3-(4-((2-(trifluoromethyl)pyrimidin-5-yl)ethynyl)phenyl) propanamide], the MIC in the assay on E. coli and with K. pneumoniae was > 32 µg/mL throughout.
For `O=c1[nH]cnc(C(CCl)Cc2ccc(C#Cc3ccc(CN4CCOCC4)cc3)cc2)c1O` (stereo not drawn) [Compound 113, 6-(1-chloro-3-(4-((4-(morpholinomethyl)phenyl)ethynyl)phenyl)propan-2-yl)-5-hydroxypyrimidin-4(3H)-one], the MIC in the assay on E. coli and with K. pneumoniae was 8 to 32 µg/mL (≈ 17.2 to 69 µM) in each case.
For `CC(Cc1ccc(C#Cc2ccc(CN3CCOCC3)cc2)cc1)c1nc[nH]c(=O)c1O` (stereo not drawn) [Compound 104, 5-hydroxy-6-(1-(4-((4-(morpholinomethyl)phenyl)ethynyl)phenyl)propan-2-yl)pyrimidin-4(3H)-one], the MIC in the assay on E. coli and in the assay on K. pneumoniae was 1 to 8 µg/mL (≈ 2.33 to 18.6 µM) in each case.
For `O=c1[nH]cnc(CCc2ccc(C#Cc3ncccn3)cc2)c1O` [Compound 14, 5-hydroxy-6-(4-(pyrimidin-2-ylethynyl)phenethyl) pyrimidin-4(3H)-one], the minimal inhibitory concentration (MIC) in the assay on E. coli is 8 to 32 µg/mL (≈ 25.1 to 101 µM); in the assay with K. pneumoniae it was > 32 µg/mL.

Values taken from patent US20220081421A1, “ANTIBACTERIAL COMPOUNDS” (Forge Therapeutics, Inc., priority 2018, published 2022).
